Reference: ChEMBL document CHEMBL4507279, “Data for DCP probe BI-9627” (2021)

Assays:
[1] = tested on: Tyrosine-protein kinase ABL1 (Homo sapiens), P00519 [H396P]; settings: Compound concentration 1000.0 nM
[2] = tested on: Tyrosine-protein kinase ABL1 (Homo sapiens), P00519 [Y253F]; settings: Compound concentration 1000.0 nM
[3] = biological target: RAC-beta serine/threonine-protein kinase (Homo sapiens) (UniProt P31751); settings: Compound concentration 1000.0 nM
[4] = biological target: Mitogen-activated protein kinase kinase kinase 5 (Homo sapiens) (UniProt Q99683); settings: Compound concentration 1000.0 nM
[5] = biological target: Tyrosine-protein kinase receptor UFO (Homo sapiens) (UniProt P30530); settings: Compound concentration 1000.0 nM
[6] = biological target: Serine/threonine-protein kinase Chk2 (Homo sapiens) (UniProt O96017); settings: Compound concentration 1000.0 nM
[7] = biological target: Dual specificity protein kinase CLK2 (Homo sapiens) (UniProt P49760); settings: Compound concentration 1000.0 nM
[8] = biological target: Casein kinase I isoform gamma-2 (Homo sapiens) (UniProt P78368); settings: Compound concentration 1000.0 nM
[9] = tested on: Epidermal growth factor receptor (Homo sapiens), P00533 [G719S]; settings: Compound concentration 1000.0 nM
[10] = tested on: Epidermal growth factor receptor (Homo sapiens), P00533 [UNDEFINED MUTATION]; settings: Compound concentration 1000.0 nM
[11] = tested on: Epidermal growth factor receptor (Homo sapiens), P00533 [UNDEFINED MUTATION]; settings: Compound concentration 1000.0 nM; remark: listed apart in the source
[12] = tested on: Epidermal growth factor receptor (Homo sapiens), P00533 [L861Q]; settings: Compound concentration 1000.0 nM
[13] = biological target: Ephrin type-A receptor 7 (Homo sapiens) (UniProt Q15375); settings: Compound concentration 1000.0 nM
[14] = biological target: Fibroblast growth factor receptor 3 (Homo sapiens) (UniProt P22607); settings: Compound concentration 1000.0 nM
[15] = biological target: Vascular endothelial growth factor receptor 1 (Homo sapiens) (UniProt P17948); settings: Compound concentration 1000.0 nM
[16] = tested on: Receptor-type tyrosine-protein kinase FLT3 (Homo sapiens), P36888 [N841I]; settings: Compound concentration 1000.0 nM
[17] = biological target: Homeodomain-interacting protein kinase 2 (Homo sapiens) (UniProt Q9H2X6); settings: Compound concentration 1000.0 nM
[18] = biological target: Mitogen-activated protein kinase kinase kinase 13 (Homo sapiens) (UniProt O43283); settings: Compound concentration 1000.0 nM
[19] = biological target: Serine/threonine-protein kinase MARK2 (Homo sapiens) (UniProt Q7KZI7); settings: Compound concentration 1000.0 nM
[20] = biological target: Hepatocyte growth factor receptor (Homo sapiens) (UniProt P08581); settings: Compound concentration 1000.0 nM
[21] = biological target: Misshapen-like kinase 1 (Homo sapiens) (UniProt Q8N4C8); settings: Compound concentration 1000.0 nM
[22] = biological target: Mitogen-activated protein kinase kinase kinase 9 (Homo sapiens) (UniProt P80192); settings: Compound concentration 1000.0 nM
[23] = biological target: Serine/threonine-protein kinase MRCK beta (Homo sapiens) (UniProt Q9Y5S2); settings: Compound concentration 1000.0 nM
[24] = biological target: Cyclin-dependent kinase 17 (Homo sapiens) (UniProt Q00537); settings: Compound concentration 1000.0 nM
[25] = biological target: Platelet-derived growth factor receptor alpha (Homo sapiens) (UniProt P16234); settings: Compound concentration 1000.0 nM
[26] = biological target: Phosphorylase b kinase regulatory subunit alpha, liver isoform (Homo sapiens) (UniProt P46019); settings: Compound concentration 1000.0 nM
[27] = biological target: Membrane-associated tyrosine- and threonine-specific cdc2-inhibitory kinase (Homo sapiens) (UniProt Q99640); settings: Compound concentration 1000.0 nM
[28] = biological target: Protein kinase C eta type (Homo sapiens) (UniProt P24723); settings: Compound concentration 1000.0 nM
[29] = biological target: cGMP-dependent protein kinase 2 (Homo sapiens) (UniProt Q13237); settings: Compound concentration 1000.0 nM
[30] = biological target: Serine/threonine-protein kinase PRP4 homolog (Homo sapiens) (UniProt Q13523); settings: Compound concentration 1000.0 nM
[31] = biological target: Ribosomal protein S6 kinase alpha-1 (Homo sapiens) (UniProt Q15418); settings: Compound concentration 1000.0 nM
[32] = biological target: Tyrosine-protein kinase Tec (Homo sapiens) (UniProt P42680); settings: Compound concentration 1000.0 nM
[33] = biological target: Non-receptor tyrosine-protein kinase TNK1 (Homo sapiens) (UniProt Q13470); settings: Compound concentration 1000.0 nM
[34] = biological target: Phosphatidylinositol 3-kinase catalytic subunit type 3 (Homo sapiens) (UniProt Q8NEB9); settings: Compound concentration 1000.0 nM
[35] = biological target: Serine/threonine-protein kinase WNK4 (Homo sapiens) (UniProt Q96J92); settings: Compound concentration 1000.0 nM
[36] = biological target: Serine/threonine-protein kinase 32A (Homo sapiens) (UniProt Q8WU08); settings: Compound concentration 1000.0 nM
[37] = biological target: T1, D(4) dopamine receptor (Homo sapiens) (UniProt P21917); settings: Compound concentration 10.0 uM
T1 sequence (whole entry): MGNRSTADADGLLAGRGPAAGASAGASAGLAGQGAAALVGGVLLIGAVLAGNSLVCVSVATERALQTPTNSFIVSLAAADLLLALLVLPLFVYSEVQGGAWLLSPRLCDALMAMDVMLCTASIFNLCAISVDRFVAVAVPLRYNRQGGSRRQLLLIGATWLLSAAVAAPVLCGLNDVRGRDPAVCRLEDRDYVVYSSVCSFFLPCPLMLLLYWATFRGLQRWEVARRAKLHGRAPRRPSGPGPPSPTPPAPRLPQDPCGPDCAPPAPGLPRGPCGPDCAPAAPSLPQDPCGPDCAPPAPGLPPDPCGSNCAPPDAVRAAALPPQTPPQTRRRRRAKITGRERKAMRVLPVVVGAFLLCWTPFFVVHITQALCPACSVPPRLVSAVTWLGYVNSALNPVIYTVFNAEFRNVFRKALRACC

[38] = biological target: Mu-type opioid receptor (Homo sapiens) (UniProt P35372); settings: Compound concentration 10.0 uM
[39] = biological target: Alpha-2B adrenergic receptor (Homo sapiens) (UniProt P18089); settings: Compound concentration 10.0 uM
[40] = organism: Rattus norvegicus; settings: Compound concentration 10.0 uM

Sequence of Ephrin type-A receptor 7 (Homo sapiens) (Q15375 28-998 limits assumed): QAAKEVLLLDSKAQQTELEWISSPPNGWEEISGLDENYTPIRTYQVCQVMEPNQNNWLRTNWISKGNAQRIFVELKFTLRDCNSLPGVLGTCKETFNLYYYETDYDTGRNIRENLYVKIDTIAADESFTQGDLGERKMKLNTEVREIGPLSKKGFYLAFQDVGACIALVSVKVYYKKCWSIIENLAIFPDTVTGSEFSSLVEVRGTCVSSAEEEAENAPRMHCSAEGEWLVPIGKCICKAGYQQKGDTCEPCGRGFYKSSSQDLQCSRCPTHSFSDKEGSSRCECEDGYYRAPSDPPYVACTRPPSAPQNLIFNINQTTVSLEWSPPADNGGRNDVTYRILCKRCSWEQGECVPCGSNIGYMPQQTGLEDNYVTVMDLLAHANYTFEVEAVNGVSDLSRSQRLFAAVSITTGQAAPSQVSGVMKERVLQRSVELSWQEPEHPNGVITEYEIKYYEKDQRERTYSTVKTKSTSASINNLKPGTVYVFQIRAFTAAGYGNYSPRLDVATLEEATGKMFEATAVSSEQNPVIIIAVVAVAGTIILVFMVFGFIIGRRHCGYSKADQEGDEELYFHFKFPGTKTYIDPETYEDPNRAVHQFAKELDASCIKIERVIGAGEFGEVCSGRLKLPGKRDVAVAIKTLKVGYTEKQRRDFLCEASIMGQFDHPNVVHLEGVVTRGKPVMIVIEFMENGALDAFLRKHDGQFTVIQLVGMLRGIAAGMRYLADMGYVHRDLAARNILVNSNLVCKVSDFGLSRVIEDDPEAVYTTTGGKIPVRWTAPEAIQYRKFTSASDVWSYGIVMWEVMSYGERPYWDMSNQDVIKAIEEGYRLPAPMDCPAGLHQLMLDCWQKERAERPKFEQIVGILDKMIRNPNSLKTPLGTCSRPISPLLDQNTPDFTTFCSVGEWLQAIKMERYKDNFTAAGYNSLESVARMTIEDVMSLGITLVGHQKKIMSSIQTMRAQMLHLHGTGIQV
Sequence of Serine/threonine-protein kinase WNK4 (Homo sapiens) (Q96J92 whole entry): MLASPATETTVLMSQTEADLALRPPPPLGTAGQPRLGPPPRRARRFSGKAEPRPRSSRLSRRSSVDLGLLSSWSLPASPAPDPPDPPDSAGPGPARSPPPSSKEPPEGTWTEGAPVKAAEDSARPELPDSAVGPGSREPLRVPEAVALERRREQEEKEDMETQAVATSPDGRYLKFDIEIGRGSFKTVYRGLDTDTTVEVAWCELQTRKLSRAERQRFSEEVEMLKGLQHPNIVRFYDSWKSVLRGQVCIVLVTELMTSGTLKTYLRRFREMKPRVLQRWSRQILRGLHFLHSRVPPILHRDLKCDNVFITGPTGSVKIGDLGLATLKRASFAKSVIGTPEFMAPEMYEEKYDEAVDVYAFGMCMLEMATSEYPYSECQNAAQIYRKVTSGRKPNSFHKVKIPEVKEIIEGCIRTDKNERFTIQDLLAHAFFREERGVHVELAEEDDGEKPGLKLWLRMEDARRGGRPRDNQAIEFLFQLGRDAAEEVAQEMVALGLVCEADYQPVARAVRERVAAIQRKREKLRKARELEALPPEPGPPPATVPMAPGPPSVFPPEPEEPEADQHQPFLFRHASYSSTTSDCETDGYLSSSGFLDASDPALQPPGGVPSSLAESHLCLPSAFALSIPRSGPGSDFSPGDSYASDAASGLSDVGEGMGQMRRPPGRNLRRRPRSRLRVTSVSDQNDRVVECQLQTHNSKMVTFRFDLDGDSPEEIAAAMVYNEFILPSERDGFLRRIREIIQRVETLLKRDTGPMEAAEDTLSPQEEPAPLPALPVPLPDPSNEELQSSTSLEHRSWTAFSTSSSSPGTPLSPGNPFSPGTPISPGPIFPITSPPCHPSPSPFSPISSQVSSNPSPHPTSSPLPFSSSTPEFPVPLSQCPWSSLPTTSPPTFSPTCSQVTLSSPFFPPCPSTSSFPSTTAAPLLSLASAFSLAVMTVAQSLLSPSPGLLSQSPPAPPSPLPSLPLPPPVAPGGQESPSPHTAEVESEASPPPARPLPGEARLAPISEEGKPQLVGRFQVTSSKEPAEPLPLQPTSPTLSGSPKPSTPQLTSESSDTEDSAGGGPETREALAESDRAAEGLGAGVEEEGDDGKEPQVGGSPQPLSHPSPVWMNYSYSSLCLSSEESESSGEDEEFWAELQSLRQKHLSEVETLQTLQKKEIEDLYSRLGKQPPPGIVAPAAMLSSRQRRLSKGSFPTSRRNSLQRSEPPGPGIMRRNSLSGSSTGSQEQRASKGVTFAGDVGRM
Sequence of Casein kinase I isoform gamma-2 (Homo sapiens) (P78368 whole entry, looked up, canonical isoform): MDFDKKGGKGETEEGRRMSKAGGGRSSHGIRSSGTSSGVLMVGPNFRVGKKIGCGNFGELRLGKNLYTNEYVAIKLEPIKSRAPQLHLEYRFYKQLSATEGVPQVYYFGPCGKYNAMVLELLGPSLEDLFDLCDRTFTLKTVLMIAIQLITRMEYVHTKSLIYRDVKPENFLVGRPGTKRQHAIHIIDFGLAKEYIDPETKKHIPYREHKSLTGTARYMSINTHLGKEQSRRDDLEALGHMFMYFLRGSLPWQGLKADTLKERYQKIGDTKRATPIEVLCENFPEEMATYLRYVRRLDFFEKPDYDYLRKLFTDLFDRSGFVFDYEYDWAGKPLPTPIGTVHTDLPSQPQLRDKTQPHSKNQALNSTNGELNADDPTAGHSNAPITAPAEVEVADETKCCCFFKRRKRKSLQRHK
Sequence of Protein kinase C eta type (Homo sapiens) (P24723 whole entry): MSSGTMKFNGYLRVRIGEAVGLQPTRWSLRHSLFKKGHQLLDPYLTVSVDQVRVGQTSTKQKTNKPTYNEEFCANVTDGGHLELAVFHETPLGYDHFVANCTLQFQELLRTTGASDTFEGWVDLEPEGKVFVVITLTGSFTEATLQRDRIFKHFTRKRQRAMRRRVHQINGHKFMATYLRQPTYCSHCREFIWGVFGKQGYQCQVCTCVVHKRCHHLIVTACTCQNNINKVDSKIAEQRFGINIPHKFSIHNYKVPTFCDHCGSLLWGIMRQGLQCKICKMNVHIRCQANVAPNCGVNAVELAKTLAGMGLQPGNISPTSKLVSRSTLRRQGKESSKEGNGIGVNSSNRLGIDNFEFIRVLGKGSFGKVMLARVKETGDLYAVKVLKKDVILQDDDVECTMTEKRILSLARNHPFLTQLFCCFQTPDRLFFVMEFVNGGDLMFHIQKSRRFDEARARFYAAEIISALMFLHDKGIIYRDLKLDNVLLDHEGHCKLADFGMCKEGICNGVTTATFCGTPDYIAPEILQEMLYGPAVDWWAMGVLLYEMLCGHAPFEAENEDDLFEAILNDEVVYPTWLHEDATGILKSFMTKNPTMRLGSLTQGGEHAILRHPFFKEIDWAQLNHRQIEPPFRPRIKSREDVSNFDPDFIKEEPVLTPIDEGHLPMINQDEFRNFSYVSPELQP
Sequence of Tyrosine-protein kinase Tec (Homo sapiens) (P42680 whole entry): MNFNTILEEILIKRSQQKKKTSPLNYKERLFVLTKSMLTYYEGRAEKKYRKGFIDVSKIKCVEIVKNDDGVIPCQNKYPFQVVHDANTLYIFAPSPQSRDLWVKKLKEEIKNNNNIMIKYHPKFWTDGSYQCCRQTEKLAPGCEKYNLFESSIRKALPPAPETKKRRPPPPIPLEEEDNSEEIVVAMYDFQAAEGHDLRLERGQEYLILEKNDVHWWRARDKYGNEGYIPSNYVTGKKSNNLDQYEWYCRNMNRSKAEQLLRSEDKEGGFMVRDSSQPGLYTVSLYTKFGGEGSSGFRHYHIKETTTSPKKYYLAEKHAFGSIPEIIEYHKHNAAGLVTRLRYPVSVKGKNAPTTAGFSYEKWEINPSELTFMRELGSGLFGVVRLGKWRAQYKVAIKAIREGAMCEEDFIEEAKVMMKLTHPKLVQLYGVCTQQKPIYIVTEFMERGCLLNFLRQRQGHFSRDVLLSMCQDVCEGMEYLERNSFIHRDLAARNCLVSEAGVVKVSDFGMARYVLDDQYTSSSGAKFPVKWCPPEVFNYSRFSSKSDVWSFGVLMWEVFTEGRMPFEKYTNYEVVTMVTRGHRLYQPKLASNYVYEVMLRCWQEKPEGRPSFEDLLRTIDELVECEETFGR
Sequence of Serine/threonine-protein kinase Chk2 (Homo sapiens) (O96017 whole entry): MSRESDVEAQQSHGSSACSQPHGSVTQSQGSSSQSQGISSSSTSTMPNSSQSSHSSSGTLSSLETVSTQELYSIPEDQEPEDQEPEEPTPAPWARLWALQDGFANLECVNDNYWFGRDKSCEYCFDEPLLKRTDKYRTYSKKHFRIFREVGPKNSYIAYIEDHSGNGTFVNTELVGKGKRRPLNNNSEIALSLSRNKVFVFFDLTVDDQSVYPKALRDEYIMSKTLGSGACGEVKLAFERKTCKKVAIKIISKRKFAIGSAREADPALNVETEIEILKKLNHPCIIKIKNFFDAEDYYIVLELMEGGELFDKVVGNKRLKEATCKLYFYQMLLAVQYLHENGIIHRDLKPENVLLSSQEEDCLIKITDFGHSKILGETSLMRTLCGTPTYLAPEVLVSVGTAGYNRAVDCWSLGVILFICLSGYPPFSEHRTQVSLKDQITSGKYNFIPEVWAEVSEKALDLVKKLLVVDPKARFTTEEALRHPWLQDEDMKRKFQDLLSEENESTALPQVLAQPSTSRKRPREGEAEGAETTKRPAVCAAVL
Sequence of RAC-beta serine/threonine-protein kinase (Homo sapiens) (P31751 whole entry): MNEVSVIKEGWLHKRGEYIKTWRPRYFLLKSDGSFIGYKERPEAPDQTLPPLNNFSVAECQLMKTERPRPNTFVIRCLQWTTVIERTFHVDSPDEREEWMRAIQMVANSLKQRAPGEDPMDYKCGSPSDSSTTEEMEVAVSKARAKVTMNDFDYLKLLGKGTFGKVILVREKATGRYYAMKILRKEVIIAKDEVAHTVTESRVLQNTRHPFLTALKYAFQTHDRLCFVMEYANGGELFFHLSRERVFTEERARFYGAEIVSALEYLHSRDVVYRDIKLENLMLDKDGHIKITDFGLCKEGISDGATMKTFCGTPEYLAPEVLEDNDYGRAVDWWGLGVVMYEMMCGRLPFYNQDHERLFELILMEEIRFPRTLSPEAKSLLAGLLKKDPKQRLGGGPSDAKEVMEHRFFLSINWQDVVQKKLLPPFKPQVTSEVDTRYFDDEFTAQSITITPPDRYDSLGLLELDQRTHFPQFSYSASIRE

CC(=O)N1CCC(c2ccc(C(=O)NC3=NCCN3)cc2C(F)(F)F)CC1 [BI 0054]
inactive: residual activity [1] 100% | residual activity [2] 90% | residual activity [3] 91% | residual activity [4] 100% | residual activity [5] 100% | residual activity [6] 100% | residual activity [7] 91% | residual activity [8] 100% | residual activity [9] 100% | residual activity [10] 89% | residual activity [11] 100% | residual activity [12] 100% | residual activity [13] 99% | residual activity [14] 100% | residual activity [15] 100% | residual activity [16] 94% | residual activity [17] 100% | residual activity [18] 100% | residual activity [19] 100% | residual activity [20] 100% | residual activity [21] 100% | residual activity [22] 100% | residual activity [23] 100% | residual activity [24] 89% | residual activity [25] 92% | residual activity [26] 100% | residual activity [27] 100% | residual activity [28] 100% | residual activity [29] 100% | residual activity [30] 100% | residual activity [31] 100% | residual activity [32] 100% | residual activity [33] 84% | residual activity [34] 88% | residual activity [35] 100% | residual activity [36] 100% | inhibition [37] -5.64% | inhibition [38] -2.53% | inhibition [39] 1.01% | inhibition [40] -2.17%

CC(=O)N1CCC(c2ccc(C(=O)NC(=N)N)cc2C(F)(F)F)CC1 [BI 9627]
inactive: residual activity [1] 86% | residual activity [2] 92% | residual activity [3] 99% | residual activity [4] 100% | residual activity [5] 100% | residual activity [6] 100% | residual activity [7] 100% | residual activity [8] 100% | residual activity [9] 96% | residual activity [10] 100% | residual activity [11] 100% | residual activity [12] 91% | residual activity [13] 100% | residual activity [14] 100% | residual activity [15] 100% | residual activity [16] 100% | residual activity [17] 100% | residual activity [18] 100% | residual activity [19] 100% | residual activity [20] 100% | residual activity [21] 95% | residual activity [22] 100% | residual activity [23] 100% | residual activity [24] 100% | residual activity [25] 100% | residual activity [26] 100% | residual activity [27] 100% | residual activity [28] 100% | residual activity [29] 100% | residual activity [30] 78% | residual activity [31] 100% | residual activity [32] 100% | residual activity [33] 89% | residual activity [34] 100% | residual activity [35] 100% | residual activity [36] 100% | inhibition [37] -5.7% | inhibition [38] 8.98% | inhibition [39] 6.29% | inhibition [40] 6.39%
